From PubChem BioAssay AID330 (DTP/NCI, 2004)
Inconclusive results and toxic doses are left out. How the source made its calls: active means survival T/C of 150% or more; inactive means T/C below 125% in these data.

Test system: P388 leukemia ip, CD2F1 mice, survival T/C
Assay: NCI In Vivo Anticancer Drug Screen. Data for tumor model P388 Leukemia (intraperitoneal) in CD2F1 (CDF1) mice
Conditions: endpoint: median survival time, schedule: Q01DX009 (ip), vehicle: distilled water + alcohol, higher = longer survival
How it was run: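 Mice carrying the transplanted tumor received test compound or vehicle. Survival was recorded in each group, and the value is the treated-group measurement divided by that of the vehicle-treated control group.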

Measured: T/C

CCN(CC)Cc1cc(Nc2nc(/C=C/c3ccccc3)nc3ccccc23)ccc1O
inactive: dose: 50.0 mg/kg/injection 97 % of control | dose: 100.0 mg/kg/injection 100 % of control | dose: 200.0 mg/kg/injection 98 % of control
